Where two headings read alike, the source gives them in different places.
Columns and labels:
Assay type in all cases: binding
[1] = molecular target: T1, HeLa cell extract proteins (Homo sapiens, UniProt P11310)
T1 construct: endogenous in cells; host or cells: HeLa cell extract
T1 sequence (P11310 26-421): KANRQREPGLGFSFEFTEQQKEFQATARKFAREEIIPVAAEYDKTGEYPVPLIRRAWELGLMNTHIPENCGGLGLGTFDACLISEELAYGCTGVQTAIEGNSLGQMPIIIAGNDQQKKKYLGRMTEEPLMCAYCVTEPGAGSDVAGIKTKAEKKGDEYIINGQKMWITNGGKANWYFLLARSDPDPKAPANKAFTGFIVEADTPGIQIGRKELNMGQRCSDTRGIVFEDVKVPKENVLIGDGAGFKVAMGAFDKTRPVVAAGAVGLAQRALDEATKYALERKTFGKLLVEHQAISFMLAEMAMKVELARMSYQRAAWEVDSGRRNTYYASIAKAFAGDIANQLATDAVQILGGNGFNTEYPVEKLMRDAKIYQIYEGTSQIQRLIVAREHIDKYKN

[2] = molecular target: T2, HeLa cell extract proteins (Homo sapiens, UniProt P48047)
T2 construct: endogenous in cells; host or cells: HeLa cell extract
T2 sequence (P48047 24-213): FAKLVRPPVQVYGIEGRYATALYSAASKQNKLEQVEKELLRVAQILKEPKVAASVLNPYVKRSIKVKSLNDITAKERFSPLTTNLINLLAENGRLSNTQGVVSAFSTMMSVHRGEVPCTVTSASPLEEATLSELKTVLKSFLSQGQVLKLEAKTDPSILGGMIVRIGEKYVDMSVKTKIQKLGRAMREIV

[3] = molecular target: T3, HeLa cell extract proteins (Homo sapiens, UniProt P51398)
T3 construct: endogenous in cells; host or cells: HeLa cell extract

[4] = molecular target: T4, HeLa cell extract proteins (Homo sapiens, UniProt P52209)
T4 construct: endogenous in cells; host or cells: HeLa cell extract
T4 sequence (P52209 1-483): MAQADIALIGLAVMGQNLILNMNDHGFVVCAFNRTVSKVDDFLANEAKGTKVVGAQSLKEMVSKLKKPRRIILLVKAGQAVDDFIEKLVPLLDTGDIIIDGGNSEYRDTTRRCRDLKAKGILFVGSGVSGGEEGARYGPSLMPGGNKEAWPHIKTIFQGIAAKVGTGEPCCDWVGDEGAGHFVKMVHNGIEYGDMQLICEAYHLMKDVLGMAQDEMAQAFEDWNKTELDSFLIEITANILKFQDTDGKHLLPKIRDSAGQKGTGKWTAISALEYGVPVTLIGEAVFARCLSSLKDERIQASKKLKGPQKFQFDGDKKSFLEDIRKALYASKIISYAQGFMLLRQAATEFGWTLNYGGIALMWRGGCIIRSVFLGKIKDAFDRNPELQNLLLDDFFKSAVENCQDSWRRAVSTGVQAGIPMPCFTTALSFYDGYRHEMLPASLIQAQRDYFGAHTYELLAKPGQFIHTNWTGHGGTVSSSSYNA

[5] = molecular target: T5, HeLa cell extract proteins (Homo sapiens, UniProt Q8NF37)
T5 construct: endogenous in cells; host or cells: HeLa cell extract
T5 sequence (Q8NF37 1-534): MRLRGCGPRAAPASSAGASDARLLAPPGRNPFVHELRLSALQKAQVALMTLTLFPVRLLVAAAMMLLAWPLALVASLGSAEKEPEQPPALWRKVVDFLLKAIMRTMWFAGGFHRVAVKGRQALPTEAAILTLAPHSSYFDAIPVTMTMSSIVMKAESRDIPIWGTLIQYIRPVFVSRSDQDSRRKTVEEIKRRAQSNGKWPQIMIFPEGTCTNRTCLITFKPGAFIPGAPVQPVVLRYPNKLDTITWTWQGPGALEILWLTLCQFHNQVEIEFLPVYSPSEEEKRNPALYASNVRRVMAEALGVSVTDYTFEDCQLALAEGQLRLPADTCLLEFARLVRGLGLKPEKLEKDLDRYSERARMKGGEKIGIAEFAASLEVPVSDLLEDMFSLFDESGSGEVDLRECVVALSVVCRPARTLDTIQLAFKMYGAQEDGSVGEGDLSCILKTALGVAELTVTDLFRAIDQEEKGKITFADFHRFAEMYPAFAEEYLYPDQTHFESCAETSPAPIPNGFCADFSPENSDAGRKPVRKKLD

[6] = molecular target: T6, HeLa cell extract proteins (Homo sapiens, UniProt Q9H773)
T6 construct: endogenous in cells; host or cells: HeLa cell extract
T6 sequence (Q9H773 1-170): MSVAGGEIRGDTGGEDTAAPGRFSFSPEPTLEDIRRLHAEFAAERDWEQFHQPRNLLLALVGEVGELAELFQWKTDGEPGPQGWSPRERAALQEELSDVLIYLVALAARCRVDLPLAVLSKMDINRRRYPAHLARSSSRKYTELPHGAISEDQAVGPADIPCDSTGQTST

[7] = molecular target: T7, HeLa cell extract proteins (Homo sapiens, UniProt Q9NTG7)
T7 construct: endogenous in cells; host or cells: HeLa cell extract
T7 sequence (Q9NTG7 1-399): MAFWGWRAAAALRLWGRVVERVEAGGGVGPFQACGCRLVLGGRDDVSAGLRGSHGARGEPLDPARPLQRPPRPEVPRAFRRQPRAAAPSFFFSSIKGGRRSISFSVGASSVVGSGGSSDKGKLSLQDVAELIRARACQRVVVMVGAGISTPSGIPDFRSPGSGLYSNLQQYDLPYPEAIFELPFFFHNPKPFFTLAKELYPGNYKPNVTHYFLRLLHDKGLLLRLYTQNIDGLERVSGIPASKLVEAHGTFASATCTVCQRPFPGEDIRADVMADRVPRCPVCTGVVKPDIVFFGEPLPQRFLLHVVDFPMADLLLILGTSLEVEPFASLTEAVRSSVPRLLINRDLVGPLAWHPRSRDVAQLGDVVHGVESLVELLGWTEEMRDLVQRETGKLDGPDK

[8] = molecular target: T8, HeLa cell extract proteins (Homo sapiens, UniProt Q9NU22)
T8 construct: endogenous in cells; host or cells: HeLa cell extract

[9] = molecular target: T9, HeLa cell extract proteins (Homo sapiens, UniProt Q9Y6D5)
T9 construct: endogenous in cells; host or cells: HeLa cell extract

[10] = HeLa, protein ACADM (HY[…] DKFZP686M24262)
[11] = HeLa, protein XTP3TPA (XTP3-TRAN[…] A PROTEIN)
[12] = HeLa, protein PGD (56 KDA PROTEIN.)

T9 sequence (Q9Y6D5 whole entry): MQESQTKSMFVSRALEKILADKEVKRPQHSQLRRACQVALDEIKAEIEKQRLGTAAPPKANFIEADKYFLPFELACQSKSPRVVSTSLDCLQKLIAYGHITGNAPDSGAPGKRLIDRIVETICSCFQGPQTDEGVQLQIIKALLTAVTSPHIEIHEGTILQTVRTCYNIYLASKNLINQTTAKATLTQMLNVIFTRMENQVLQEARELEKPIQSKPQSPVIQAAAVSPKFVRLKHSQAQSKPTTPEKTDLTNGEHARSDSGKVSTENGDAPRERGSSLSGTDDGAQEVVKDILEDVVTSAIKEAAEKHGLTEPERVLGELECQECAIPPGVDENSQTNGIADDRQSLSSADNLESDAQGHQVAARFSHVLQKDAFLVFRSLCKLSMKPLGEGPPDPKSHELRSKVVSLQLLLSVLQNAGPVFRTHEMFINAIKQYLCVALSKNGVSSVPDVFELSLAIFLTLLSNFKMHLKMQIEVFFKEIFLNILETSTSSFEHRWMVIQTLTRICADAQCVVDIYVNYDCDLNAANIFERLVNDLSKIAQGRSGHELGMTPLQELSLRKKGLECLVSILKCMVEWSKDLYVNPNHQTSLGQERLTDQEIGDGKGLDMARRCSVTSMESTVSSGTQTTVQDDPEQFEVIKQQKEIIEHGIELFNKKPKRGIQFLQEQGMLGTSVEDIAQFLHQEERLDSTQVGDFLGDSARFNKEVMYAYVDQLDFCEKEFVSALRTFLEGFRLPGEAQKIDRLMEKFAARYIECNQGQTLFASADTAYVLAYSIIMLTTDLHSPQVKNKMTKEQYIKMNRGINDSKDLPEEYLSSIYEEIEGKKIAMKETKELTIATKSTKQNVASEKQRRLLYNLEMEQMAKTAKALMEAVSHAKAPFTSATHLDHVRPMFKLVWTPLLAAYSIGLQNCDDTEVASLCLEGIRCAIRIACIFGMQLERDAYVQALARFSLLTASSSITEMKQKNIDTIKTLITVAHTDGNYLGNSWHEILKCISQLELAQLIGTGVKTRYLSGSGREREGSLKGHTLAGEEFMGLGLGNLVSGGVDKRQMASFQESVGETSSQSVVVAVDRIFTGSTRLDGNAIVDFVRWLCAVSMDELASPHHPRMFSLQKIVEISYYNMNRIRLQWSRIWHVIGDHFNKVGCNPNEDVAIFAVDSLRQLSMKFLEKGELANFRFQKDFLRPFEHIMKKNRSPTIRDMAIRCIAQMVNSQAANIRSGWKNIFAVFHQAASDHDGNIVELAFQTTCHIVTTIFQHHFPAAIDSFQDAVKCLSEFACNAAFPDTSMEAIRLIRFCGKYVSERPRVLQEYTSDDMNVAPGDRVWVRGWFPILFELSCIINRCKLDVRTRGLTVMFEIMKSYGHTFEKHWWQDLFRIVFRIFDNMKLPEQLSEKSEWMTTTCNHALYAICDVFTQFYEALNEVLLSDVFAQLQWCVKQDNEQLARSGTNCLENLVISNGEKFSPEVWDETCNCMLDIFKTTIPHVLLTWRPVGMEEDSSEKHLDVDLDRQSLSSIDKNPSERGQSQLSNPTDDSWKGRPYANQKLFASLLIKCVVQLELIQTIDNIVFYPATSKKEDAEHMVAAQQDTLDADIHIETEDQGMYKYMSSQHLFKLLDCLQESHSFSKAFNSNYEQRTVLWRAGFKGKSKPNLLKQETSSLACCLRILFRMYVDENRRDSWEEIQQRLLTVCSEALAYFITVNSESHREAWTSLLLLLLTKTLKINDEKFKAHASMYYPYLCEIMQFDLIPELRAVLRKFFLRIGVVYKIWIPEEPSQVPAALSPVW

Structure (SMILES)	fold changes relative to vehicle control ([2]; HeLa, captured protein ATP5O)	fold changes relative to vehicle control ([3]; HeLa, captured protein DAP3)	fold changes relative to vehicle control ([4]; protein PGD, HeLa)	fold changes relative to vehicle control ([5]; protein LPCAT1, HeLa)	fold changes relative to vehicle control ([7]; HeLa, captured protein SIRT3)	fold changes relative to vehicle control ([8]; HeLa, protein MDN1)	fold changes relative to vehicle control ([9]; HeLa, protein ARFGEF2)	fold changes relative to vehicle control ([1]; protein ACADM, HeLa)	fold changes relative to vehicle control ([2]; protein ATP5O, HeLa)	fold changes relative to vehicle control ([3]; protein DAP3, HeLa)	fold changes relative to vehicle control [4, 12] [fold]	fold changes relative to vehicle control ([5]; HeLa, protein LPCAT1)	fold changes relative to vehicle control ([6]; captured protein XTP3TPA, HeLa)	fold changes relative to vehicle control ([7]; protein SIRT3, HeLa)	fold changes relative to vehicle control ([8]; captured protein MDN1, HeLa)	also measured
Nc1nc2c(c(=O)[nH]1)N(C=O)C(CNc1ccc(C(=O)N[C@@H](CCC(=O)O)C(=O)O)cc1)CN2 (stereo partly drawn) [LEU, leucovorin]	1.01	0.98	0.97	0.85	1	0.96	1.01	–	–	–	–	–	–	–	–	fold changes relative to vehicle control [1, 10]: 1.16; fold changes relative to vehicle control [6, 11]: 1.14
Nc1nc2[nH]cc(CCc3ccc(C(=O)N[C@@H](CCC(=O)O)C(=O)O)cc3)c2c(=O)[nH]1 [PTX, pemetrexed]	–	–	–	–	–	–	–	–	–	–	–	–	–	–	–	fold changes relative to vehicle control [1]: 1.3; fold changes relative to vehicle control [2]: 1.01; fold changes relative to vehicle control [3]: 0.9; fold changes relative to vehicle control [4]: 1.17; fold changes relative to vehicle control [5]: 1; fold changes relative to vehicle control [6]: 1.09; fold changes relative to vehicle control [7]: 0.95; fold changes relative to vehicle control [8]: 0.94; fold changes relative to vehicle control [9]: 1.01
CCCCCCOc1ccc(Cc2cnc(N)nc2N)cc1 [compound 1]	–	–	–	–	–	–	1.04	1.17	0.98	1.27	1.44	0.93	0.91	1	0.94	–
CCCCCCOc1cccc(Cc2cnc(N)nc2N)c1 [compound 2]	–	–	–	–	–	–	1.11	1.75	0.98	1.16	2.49	1.07	0.73	1	0.87	–
Nc1nc2cccc(-c3ccccc3)c2n1Cc1ccc(Cl)c(Cl)c1 [compound 3]	–	–	–	–	–	–	0.95	1	0.9	1	0.86	1.11	1.14	1.16	1.17	–
NCCOCCOCC(=O)Nc1nc2ncc(CNc3ccc(C(=O)NC(CCC(=O)O)C(=O)O)cc3)nc2c(=O)[nH]1 (stereo not drawn) [compound 6]	0.97	0.84	1.35	0.92	0.77	1.12	1.15	–	–	–	–	–	–	–	–	fold changes relative to vehicle control ([1]; HeLa, protein ACADM (HYPOTHETICAL PROTEIN DKFZP686M24262)): 1.43; fold changes relative to vehicle control ([6]; HeLa, protein XTP3TPA (XTP3-TRANSACTIVATED GENE A PROTEIN)): 0.51
NCCCNc1ccc(C(=O)NC(CCC(=O)O)C(=O)O)cc1 (stereo not drawn) [compound 7]	1.02	0.94	0.86	1.07	0.92	1	1.17	–	–	–	–	–	–	–	–	fold changes relative to vehicle control [1, 10]: 1.06; fold changes relative to vehicle control [6, 11]: 1.21
